In patent US20220112187A1, “PYRAZOLOPYRIDINE AMINE COMPOUNDS FOR THE TREATMENT OF AUTOIMMUNE DISEASE” (Hoffmann-La Roche Inc., priority 2018, published 2022):

Biological target: T1, human TLR7 (Homo sapiens, UniProt Q9NYK1)
T1 sequence (Q9NYK1 27-1049): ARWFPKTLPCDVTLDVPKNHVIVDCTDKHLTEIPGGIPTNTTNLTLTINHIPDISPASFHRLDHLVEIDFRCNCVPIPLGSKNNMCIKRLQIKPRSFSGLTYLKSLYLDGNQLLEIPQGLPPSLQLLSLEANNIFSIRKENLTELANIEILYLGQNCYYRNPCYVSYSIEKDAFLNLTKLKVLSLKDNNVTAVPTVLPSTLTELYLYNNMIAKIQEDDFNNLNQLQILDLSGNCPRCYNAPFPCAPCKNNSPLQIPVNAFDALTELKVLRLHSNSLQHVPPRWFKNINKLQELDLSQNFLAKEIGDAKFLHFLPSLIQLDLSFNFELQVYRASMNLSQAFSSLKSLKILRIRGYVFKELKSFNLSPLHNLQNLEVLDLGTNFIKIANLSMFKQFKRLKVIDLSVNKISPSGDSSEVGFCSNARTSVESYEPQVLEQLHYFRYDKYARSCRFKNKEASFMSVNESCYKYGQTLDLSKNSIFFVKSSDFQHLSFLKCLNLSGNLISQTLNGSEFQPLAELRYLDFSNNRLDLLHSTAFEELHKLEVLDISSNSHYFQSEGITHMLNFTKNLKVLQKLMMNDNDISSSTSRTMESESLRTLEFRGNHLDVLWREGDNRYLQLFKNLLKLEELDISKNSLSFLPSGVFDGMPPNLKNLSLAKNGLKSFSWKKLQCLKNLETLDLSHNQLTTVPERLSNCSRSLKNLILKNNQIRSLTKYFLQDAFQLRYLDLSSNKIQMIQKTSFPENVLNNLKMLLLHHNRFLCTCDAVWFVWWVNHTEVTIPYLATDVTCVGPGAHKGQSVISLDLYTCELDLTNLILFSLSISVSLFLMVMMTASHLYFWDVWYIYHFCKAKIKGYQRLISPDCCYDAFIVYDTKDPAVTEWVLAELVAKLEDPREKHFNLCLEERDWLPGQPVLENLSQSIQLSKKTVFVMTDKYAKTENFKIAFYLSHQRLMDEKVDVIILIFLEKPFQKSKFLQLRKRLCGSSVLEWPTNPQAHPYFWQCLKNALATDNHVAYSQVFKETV
Assay: HEK293-Blue-hTLR-7 cells assay (SEAP reporter, R848 stimulation)
Type: cell-based
Conditions: HEK293-Blue-hTLR7 cells, R848 ligand, 20 hrs incubation
Description: A stable HEK293-Blue-hTLR-7 cell line was purchased from InvivoGen (Cat. #: hkb-htlr7, San Diego, Calif., USA). These cells were originally designed for studying the stimulation of human TLR7 by monitoring the activation of NF-κB. A SEAP (secreted embryonic alkaline phosphatase) reporter gene was placed under the control of the IFN-β minimal promoter fused to five NF-κB and AP-1-binding sites. The SEAP was induced by activating NF-κB and AP-1 via stimulating HEK-Blue hTLR7 cells with TLR7 ligands. Therefore the reporter expression was declined by TLR7 antagonist under the stimulation of a ligand, such as R848 (Resiquimod), for incubation of 20 hrs. The cell culture supernatant SEAP reporter activity was determined using QUANTI-Blue™ kit (Cat. #: rep-qb1, Invivogen, San Diego, Ca, USA) at a wavelength of 640 nm, a detection medium that turns purple or blue in the presence of alkaline phosphatase.
HEK293-Blue-hTLR7 cells were incubated at a density of 250,000˜450,000 cells/mL in a volume of 170 μL in a 96-well plate in Dulbecco's Modified Eagle's medium (DMEM) containing 4.5 g/L glucose, 50 U/mL penicillin, […], […], 2 mM L-glutamine, 10% (v/v) heat-inactivated fetal bovine serum with addition of 20 μL test compound in a serial dilution in the presence of final DMSO at 1% and 10 μL of 20 uM R848 in above DMEM, perform incubation under 37° C. in a CO2 incubator for 20 hrs. Then 20 μL of the supernatant from each well was incubated with 180 μL Quanti-blue substrate solution at 37° C. for 2 hrs and the absorbance was read at 620˜655 nm using a spectrophotometer. The signalling pathway that TLR7 activation leads to downstream NF-κB activation has been widely accepted, and therefore similar reporter assay was modified for evaluating TLR7 antagonist.

IC50	SMILES
100 nM	C[C@@H]1CN(c2ccc(C#N)n3nccc23)C[C@H](CN2CCC(N3CCCCC3)CC2)O1 [Example 16, 4-[(2R,6S)-2-methyl-6-[[4-(1-piperidyl)-1-piperidyl]methyl]morpholin-4-yl]pyrazolo[1,5-a]pyridine-7-carbonitrile]
190 nM	C[C@@H]1CN(c2ccc(C#N)n3nccc23)C[C@H](CN2CCC(N3CCCC3)CC2)O1 [Example 54, 4-[(2R,6S)-2-methyl-6-[(4-pyrrolidin-1-yl-1-piperidyl)methyl]morpholin-4-yl]pyrazolo[1,5-a]pyridine-7-carbonitrile]
300 nM	C[C@@H]1CN(c2ccc(C#N)n3nccc23)C[C@H](CN2CCC3(CCN3)CC2)O1 [Example 48, 4-[(2S,6R)-2-(1,7-diazaspiro[3.5]nonan-7-ylmethyl)-6-methyl-morpholin-4-yl]pyrazolo[1,5-a]pyridine-7-carbonitrile]
600 nM	C[C@@H]1CN(c2ccc(C#N)n3nccc23)C[C@H](CN2CC3(CCCNCC3)C2)O1 [Example 46, 4-[(2S,6R)-2-(2,8-diazaspiro[3.6]decan-2-ylmethyl)-6-methyl-morpholin-4-yl]pyrazolo[1,5-a]pyridine-7-carbonitrile]
95 nM	C[C@@H]1CN(c2ccc(C#N)n3nccc23)C[C@H](CN2CCC(N3CCN(C)CC3)CC2)O1 [Example 1, 4-[(2R,6S)-2-methyl-6-[[4-(4-methylpiperazin-1-yl)-1-piperidyl]methyl]morpholin-4-yl]pyrazolo[1,5-a]pyridine-7-carbonitrile]
280 nM	C[C@@H]1CN(c2ccc(C#N)n3ncc(F)c23)C[C@H](CN2CCCC3(CCNCC3)C2)O1 [Example 67, 4-[(2S,6R)-2-(2,9-diazaspiro[5.5]undecan-2-ylmethyl)-6-methyl-morpholin-4-yl]-3-fluoro-pyrazolo[1,5-a]pyridine-7-carbonitrile]
44 nM	CC1CN(C[C@H]2CN(c3ccc(C#N)n4nccc34)C[C@@H](C)O2)CCN1 (stereo partly drawn) [Example 28, 4-[(2R,6S)-2-methyl-6-[(3-methylpiperazin-1-yl)methyl]morpholin-4-yl]pyrazolo[1,5-a]pyridine-7-carbonitrile]
460 nM	C[C@@H]1CN(c2ccc(C#N)n3nccc23)C[C@H](CN2CCCC3CNCC32)O1 (stereo partly drawn) [Example 61, 4-[(2S,6R)-2-(2,3,4,4a,5,6,7,7a-octahydropyrrolo[3,4-b]pyridin-1-ylmethyl)-6-methyl-morpholin-4-yl]pyrazolo[1,5-a]pyridine-7-carbonitrile]
260 nM	C[C@@H]1CN(c2ccc(C#N)n3nccc23)C[C@H](CNC2CCN(C)CC2)O1 [Example 7, 4-[(2R,6S)-2-methyl-6-[[(1-methyl-4-piperidyl)amino]methyl]morpholin-4-yl]pyrazolo[1,5-a]pyridine-7-carbonitrile]
540 nM	C[C@@H]1CN(c2ccc(C#N)n3nccc23)C[C@H](CN2CCC23CNC3)O1 [Example 55, 4-[(2S,6R)-2-(1,6-diazaspiro[3.3]heptan-1-ylmethyl)-6-methyl-morpholin-4-yl]pyrazolo[1,5-a]pyridine-7-carbonitrile]
680 nM	C[C@@H]1CN(c2ccc(C#N)n3nccc23)C[C@H](CN2C[C@H]3CC[C@@H](N(C)C)[C@H]3C2)O1 (racemic) [Example 75, 4-[(2S,6R)-2-[[4-(dimethylamino)-3,3a,4,5,6,6a-hexahydro-1H-cyclopenta[c]pyrrol-2-yl]methyl]-6-methyl-morpholin-4-yl]pyrazolo[1,5-a]pyridine-7-carbonitrile]
98 nM	C[C@@H]1CN(c2ccc(C#N)n3nccc23)C[C@H](CN2CCC3(CCNC3)C2=O)O1 (stereo partly drawn) [Example 21, 4-[(2R,6R)-2-methyl-6-[(1-oxo-2,7-diazaspiro[4.4]nonan-2-yl)methyl]morpholin-4-yl]pyrazolo[1,5-a]pyridine-7-carbonitrile]

SMILES	IC50
C[C@@H]1CN(c2ccc(C#N)n3nccc23)C[C@H](CN2C3CCC2CNC3)O1 [Example 43, 4-[(2S,6R)-2-(3,8-diazabicyclo[3.2.1]octan-8-ylmethyl)-6-methyl-morpholin-4-yl]pyrazolo[1,5-a]pyridine-7-carbonitrile]	59 nM
